Experimental data published in ChEMBL document CHEMBL1201862, “PubChem BioAssay data set” (2004).
pIC50: −log10 of the molar value. Activity calls are given as the source filed them.

Columns and labels:
[1] = A cytotoxicity screen of small molecule inhibitors of the PhoP region in Salmonella typhi identified in the primary screen. [Related pubchem assays: 1850, 1864, 1985 ]; type: functional
[2] = target: E3 ubiquitin-protein ligase Mdm2 (Homo sapiens, UniProt Q00987); assay: MDM2-luc reporter signal enhancers, multi-concentration potency testing, MDM2 ubiquitin-protein ligase inhibitor program, whole-cell format, luminescence detection, 384-well microplate (AID 1394); type: functional;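 also: MDM2 E3 inhibitors raise luminescence so EC50 is for signal enhancement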
[3] = target: Mitogen-activated protein kinase 10 (Homo sapiens, UniProt P53779); assay: Dose response biochemical screening assay for inhibitors of c-Jun N-Terminal Kinase 3 (JNK3). [Related pubchem assays: 746 ]
Chain of Mitogen-activated protein kinase 10 (P53779 whole entry): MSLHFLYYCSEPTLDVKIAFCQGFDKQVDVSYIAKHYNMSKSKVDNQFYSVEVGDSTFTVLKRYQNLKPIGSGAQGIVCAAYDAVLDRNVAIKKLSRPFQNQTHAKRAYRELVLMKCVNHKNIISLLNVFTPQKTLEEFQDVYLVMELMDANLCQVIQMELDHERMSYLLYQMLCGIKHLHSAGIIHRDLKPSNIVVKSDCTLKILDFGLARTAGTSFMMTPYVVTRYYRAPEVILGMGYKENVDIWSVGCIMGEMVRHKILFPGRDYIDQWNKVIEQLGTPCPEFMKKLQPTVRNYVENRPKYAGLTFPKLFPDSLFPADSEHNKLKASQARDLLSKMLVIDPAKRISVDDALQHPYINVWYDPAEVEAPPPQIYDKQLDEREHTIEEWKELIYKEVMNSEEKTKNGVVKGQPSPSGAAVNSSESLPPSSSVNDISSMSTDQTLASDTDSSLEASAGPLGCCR

cells [4] = type: functional
[5] = target: Peroxisome proliferator-activated receptor gamma/Nuclear receptor coactivator 2 (Homo sapiens, UniProt P37231); type: functional;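 also: agonist potency for raising coactivator recruitment to the receptor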
Chain of Peroxisome proliferator-activated receptor gamma/Nuclear receptor coactivator 2 (P37231 whole entry): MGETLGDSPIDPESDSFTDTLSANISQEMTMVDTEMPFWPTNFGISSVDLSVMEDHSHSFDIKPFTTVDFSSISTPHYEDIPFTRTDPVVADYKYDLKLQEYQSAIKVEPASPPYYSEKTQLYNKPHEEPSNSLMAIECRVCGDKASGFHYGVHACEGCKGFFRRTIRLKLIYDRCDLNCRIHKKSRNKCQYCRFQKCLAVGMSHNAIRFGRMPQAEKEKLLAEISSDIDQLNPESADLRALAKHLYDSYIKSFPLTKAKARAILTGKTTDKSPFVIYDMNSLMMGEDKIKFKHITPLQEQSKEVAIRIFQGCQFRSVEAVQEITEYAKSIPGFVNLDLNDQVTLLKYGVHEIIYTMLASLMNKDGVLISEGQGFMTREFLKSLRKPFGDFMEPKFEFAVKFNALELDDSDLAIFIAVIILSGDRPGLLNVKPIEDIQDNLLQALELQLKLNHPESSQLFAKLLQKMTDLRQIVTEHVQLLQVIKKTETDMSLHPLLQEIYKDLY
Chain of Peroxisome proliferator-activated receptor gamma/Nuclear receptor coactivator 2 (Q15596 whole entry, further chain): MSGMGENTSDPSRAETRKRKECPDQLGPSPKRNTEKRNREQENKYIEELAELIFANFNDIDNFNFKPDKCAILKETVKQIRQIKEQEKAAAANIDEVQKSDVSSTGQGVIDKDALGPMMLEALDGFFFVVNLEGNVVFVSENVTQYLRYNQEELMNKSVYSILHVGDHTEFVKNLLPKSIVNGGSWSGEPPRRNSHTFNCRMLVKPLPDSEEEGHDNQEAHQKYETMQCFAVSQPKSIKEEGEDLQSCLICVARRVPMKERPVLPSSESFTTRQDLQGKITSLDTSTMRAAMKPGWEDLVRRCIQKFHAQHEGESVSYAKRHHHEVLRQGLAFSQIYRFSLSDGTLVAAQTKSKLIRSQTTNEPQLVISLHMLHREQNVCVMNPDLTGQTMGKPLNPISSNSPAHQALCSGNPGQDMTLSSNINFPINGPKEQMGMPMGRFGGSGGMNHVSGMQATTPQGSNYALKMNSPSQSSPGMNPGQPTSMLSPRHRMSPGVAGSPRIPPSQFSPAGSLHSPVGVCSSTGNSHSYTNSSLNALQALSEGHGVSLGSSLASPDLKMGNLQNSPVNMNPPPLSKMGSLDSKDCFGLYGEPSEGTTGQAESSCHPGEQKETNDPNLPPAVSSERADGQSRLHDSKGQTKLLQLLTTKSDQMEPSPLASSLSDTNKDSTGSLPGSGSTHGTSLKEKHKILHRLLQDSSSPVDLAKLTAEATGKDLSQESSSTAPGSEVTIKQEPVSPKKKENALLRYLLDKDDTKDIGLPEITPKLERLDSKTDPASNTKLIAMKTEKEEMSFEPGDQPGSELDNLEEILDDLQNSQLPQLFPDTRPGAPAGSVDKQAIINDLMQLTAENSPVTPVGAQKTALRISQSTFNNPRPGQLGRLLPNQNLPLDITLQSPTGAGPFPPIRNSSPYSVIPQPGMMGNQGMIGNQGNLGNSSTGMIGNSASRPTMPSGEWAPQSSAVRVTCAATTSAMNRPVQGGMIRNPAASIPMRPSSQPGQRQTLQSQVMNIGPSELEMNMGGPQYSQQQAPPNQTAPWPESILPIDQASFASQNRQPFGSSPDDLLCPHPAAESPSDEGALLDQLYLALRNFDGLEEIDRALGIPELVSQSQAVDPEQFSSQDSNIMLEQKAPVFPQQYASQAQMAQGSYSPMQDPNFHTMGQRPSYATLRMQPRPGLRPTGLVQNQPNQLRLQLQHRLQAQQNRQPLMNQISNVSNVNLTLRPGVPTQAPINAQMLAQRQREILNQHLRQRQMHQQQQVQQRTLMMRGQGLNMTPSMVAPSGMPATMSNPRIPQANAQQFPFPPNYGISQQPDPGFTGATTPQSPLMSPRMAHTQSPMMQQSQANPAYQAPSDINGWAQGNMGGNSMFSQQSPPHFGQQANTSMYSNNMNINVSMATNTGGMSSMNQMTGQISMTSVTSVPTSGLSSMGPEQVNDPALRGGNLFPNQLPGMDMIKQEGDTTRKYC

[6] = target: Peroxisome proliferator-activated receptor gamma/Nuclear receptor coactivator 1 (Homo sapiens, UniProt P37231); type: functional;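 also: agonist potency as compounds enhance coactivator SRC-1 recruitment to PPARgamma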
[7] = target: Peroxisome proliferator-activated receptor gamma/Nuclear receptor coactivator 3 (Homo sapiens, UniProt P37231); type: functional;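 also: agonist potency for raising coactivator recruitment to the receptor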
Chain of Peroxisome proliferator-activated receptor gamma/Nuclear receptor coactivator 3 (P37231 whole entry): as the sequence (P37231 whole entry) above
Chain of Peroxisome proliferator-activated receptor gamma/Nuclear receptor coactivator 3 (Q9Y6Q9 whole entry, further chain): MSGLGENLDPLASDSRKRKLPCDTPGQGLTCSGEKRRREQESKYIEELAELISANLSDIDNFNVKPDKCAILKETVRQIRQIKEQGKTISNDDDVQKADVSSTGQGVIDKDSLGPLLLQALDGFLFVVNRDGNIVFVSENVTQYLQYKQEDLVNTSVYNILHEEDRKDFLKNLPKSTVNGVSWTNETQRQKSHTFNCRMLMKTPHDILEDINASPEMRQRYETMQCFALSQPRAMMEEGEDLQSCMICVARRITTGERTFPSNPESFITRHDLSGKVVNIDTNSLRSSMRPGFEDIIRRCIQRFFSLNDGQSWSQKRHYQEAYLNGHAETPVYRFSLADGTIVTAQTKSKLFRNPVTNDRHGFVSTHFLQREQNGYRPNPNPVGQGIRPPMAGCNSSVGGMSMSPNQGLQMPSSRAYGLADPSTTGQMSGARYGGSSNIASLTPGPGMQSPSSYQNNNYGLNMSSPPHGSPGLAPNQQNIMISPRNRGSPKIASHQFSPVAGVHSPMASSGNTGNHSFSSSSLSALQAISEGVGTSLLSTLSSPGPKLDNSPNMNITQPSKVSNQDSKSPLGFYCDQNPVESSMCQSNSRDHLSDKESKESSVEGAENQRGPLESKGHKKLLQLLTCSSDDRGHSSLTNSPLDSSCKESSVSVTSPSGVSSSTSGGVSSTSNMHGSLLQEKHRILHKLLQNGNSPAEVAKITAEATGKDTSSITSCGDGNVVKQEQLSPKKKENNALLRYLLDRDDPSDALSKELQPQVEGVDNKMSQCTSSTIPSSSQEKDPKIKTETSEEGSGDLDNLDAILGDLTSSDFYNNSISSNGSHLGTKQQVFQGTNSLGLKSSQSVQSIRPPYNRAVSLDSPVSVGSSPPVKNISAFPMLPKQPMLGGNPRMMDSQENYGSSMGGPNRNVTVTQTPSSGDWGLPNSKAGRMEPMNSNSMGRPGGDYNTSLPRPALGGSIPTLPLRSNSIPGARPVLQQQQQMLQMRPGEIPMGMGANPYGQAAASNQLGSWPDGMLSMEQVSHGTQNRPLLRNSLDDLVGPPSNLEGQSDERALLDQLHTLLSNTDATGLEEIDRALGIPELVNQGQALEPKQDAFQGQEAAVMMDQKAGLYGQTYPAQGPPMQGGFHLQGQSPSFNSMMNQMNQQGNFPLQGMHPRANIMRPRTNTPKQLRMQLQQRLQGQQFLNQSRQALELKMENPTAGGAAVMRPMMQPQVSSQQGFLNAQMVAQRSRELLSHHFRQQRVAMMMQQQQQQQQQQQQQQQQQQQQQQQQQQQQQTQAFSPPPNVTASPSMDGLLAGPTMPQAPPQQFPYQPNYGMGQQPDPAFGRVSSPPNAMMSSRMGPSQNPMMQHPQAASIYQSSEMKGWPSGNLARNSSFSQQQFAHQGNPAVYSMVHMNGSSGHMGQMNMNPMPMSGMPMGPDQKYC

[8] = target: T1, Microphthalmia-associated transcription factor (Homo sapiens, UniProt O75030); assay: reducers of TRPM1 reporter luminescence, concentration series – cell-based, SK-MEL-5, cherry-picked, set 3, MITF inhibitor project, dose response (AID 493073); type: functional;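 also: SK-MEL-5 melanoma cells with luciferase driven by the MITF target TRPM1 promoter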
T1 sequence (O75030 whole entry): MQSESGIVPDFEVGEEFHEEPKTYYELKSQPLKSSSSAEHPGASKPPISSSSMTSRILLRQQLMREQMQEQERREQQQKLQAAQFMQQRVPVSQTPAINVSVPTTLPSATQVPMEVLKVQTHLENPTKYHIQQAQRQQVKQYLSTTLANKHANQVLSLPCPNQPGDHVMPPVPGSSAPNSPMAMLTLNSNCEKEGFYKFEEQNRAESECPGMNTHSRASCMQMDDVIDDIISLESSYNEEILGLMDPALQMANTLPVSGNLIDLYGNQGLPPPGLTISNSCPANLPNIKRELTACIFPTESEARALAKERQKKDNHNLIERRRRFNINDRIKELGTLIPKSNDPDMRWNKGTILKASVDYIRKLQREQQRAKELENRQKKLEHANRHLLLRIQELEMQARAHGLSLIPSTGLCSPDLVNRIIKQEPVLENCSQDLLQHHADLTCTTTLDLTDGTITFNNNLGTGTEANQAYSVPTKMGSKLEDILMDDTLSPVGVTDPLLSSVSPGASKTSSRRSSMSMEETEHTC

[9] = reduction of Shn3 3'UTR-driven luciferase in osteoblasts – cell-based, Clone20 osteoblasts, firefly luciferase, cherry-picked, dose response (AID 624132); type: functional;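 also: firefly luciferase luminescence from reporter carrying the Shn3 3'UTR in osteoblasts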
cells [10] = type: functional, cell-based
INS1 = assay: INS-1E survival protection against cytokine death – cell-based, luminescence, retest, dose response (AID 449756); type: functional; conditions: Rattus norvegicus;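 also: cell death triggered by IL-1 beta plus TNF-alpha plus IFN-gamma mixture; protective hits raise ATP signal compared with cytokine alone wells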
[11] = general cell-killing toxicity readout – plate reader, dry powder samples, cytotoxicity control for PAX8 inhibitor project, dose response (AID 743021); type: functional, cell-based
cells [12] = type: functional, cell-based; remark: listed apart in the source
Paired box protein Pax-8 = Paired box protein Pax-8 (Homo sapiens, UniProt Q06710); assay: PAX8 transcriptional activity inhibition in RMG-I – RMG-I cells, luciferase, cherry-pick, dose response (AID 687027); type: functional, cell-based;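 also: luciferase reporter driven by Pax8 target thyroperoxidase promoter measured by SteadyGlo luminescence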
[13] = loss of viability in HepG2 cells – cell-based, CellTiter-Glo, cherry-picked, cytotoxicity control for Shn3 inhibitor project, dose response (AID 624134); type: functional
[14] = non-specific 3'UTR reporter inhibition in Clone20-Shn3RL – cell-based, Renilla luciferase, cherry-picked, counter-screen for Shn3 inhibitor project, dose response (AID 624133); type: functional
[15] = target: T2, Polyadenylate-binding protein 1 (Homo sapiens, UniProt P11940); assay: MLLE binding blockers, Cy5 peptide tracer – biochemical, fluorescence polarization, Cy5-PAM2 peptide, secondary, miRNA deadenylation inhibitor project, dose response (AID 602260); type: functional; conditions: read-out: IC50_Mean
T2 sequence (P11940 whole entry): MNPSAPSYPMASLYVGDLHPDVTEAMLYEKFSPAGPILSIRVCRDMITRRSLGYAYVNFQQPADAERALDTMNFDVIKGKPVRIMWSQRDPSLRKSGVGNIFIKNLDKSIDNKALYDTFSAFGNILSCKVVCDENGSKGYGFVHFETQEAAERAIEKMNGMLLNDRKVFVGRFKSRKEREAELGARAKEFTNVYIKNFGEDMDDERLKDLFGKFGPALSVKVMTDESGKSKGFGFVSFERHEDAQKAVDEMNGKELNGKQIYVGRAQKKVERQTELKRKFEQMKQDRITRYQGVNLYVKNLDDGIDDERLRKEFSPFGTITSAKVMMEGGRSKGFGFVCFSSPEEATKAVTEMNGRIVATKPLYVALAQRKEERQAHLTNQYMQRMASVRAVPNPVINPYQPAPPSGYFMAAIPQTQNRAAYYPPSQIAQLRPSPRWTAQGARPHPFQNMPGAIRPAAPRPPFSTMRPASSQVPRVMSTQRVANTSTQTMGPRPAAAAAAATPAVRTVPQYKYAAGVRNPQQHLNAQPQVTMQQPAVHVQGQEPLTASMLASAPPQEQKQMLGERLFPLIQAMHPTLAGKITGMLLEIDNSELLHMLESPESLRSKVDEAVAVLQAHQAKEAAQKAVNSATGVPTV

Vero = assay: viability of Vero cells under compound – cytotoxicity control for flavivirus capping enzyme inhibitors (AID 588742); type: functional; conditions: Chlorocebus sabaeus
[16] = viability loss in THP-1 monocytes – THP-1 cells, cytotoxicity control for Vif-APOBEC3G degradation inhibitor project, dose response (AID 1117359); type: functional; conditions: THP-1
[17] = target: T3, Apoptotic protease-activating factor 1 (Homo sapiens, UniProt O14727); type: functional
T3 sequence (O14727 whole entry): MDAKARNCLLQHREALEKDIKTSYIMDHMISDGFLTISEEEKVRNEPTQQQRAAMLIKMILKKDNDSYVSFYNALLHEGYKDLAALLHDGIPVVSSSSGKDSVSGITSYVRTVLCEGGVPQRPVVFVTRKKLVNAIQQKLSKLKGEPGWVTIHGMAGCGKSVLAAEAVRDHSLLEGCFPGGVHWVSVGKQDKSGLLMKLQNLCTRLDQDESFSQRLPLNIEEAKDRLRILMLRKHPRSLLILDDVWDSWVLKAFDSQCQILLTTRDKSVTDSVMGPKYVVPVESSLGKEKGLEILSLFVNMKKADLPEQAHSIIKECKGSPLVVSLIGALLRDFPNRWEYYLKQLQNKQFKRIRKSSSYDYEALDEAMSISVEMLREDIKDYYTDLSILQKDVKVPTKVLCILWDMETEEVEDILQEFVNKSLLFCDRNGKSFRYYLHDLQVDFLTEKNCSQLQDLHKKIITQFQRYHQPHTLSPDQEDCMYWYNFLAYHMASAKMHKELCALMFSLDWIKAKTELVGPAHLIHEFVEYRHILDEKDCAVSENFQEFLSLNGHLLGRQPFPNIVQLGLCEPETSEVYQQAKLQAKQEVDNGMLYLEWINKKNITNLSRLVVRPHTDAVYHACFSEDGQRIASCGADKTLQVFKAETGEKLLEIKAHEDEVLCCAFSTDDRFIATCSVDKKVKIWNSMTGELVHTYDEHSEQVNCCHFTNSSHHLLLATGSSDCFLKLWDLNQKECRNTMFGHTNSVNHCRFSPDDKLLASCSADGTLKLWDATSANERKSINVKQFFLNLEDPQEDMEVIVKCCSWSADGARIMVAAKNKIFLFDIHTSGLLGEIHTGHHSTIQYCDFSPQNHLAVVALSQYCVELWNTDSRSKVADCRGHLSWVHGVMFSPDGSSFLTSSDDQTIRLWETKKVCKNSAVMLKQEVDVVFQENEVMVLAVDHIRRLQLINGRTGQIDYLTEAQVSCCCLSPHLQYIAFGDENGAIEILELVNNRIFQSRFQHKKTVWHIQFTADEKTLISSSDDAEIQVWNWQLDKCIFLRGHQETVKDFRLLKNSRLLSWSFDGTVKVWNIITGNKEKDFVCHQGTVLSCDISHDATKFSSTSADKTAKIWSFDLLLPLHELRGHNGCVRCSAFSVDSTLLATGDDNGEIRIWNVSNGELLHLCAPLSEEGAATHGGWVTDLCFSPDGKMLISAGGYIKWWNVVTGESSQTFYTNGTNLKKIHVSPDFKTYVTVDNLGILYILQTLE

[18] = target: Induced myeloid leukemia cell differentiation protein Mcl-1 (Homo sapiens, UniProt Q07820); type: functional
[19] = target: T2, Polyadenylate-binding protein 1; assay: MLLE domain peptide-binding blockers, IC50 – biochemical, fluorescence polarization, FITC-PAM2 peptide, dose response (AID 602259); type: functional; conditions: read-out: IC50_Mean
Estrogen receptor beta = Estrogen receptor beta (Homo sapiens, UniProt Q92731);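 also: recombinant ER-beta bound to coactivator SRC1 peptide in presence of estradiol agonist; inhibitors block coactivator peptide binding and lower the FRET signal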
[20] = target: Glyceraldehyde-3-phosphate dehydrogenase (Homo sapiens, UniProt P04406)
[21] = target: T4, Kappa-type opioid receptor (Homo sapiens, UniProt P41145); type: functional
Beta-galactosidase = Beta-galactosidase (Escherichia coli, UniProt Q8VNN2); type: functional
[22] = target: T4, Kappa-type opioid receptor; type: functional; remark: listed apart in the source
Aminopeptidase N = target: T5, Aminopeptidase N (Plasmodium falciparum FcB1/Columbia, UniProt O96935); assay: malaria alanyl aminopeptidase activity blockers – biochemical, fluorogenic H-Leu-NHMec substrate, 1536-well (AID 1445); design: species or system Plasmodium falciparum 3D7, 3D7
T5 sequence (O96935 whole entry): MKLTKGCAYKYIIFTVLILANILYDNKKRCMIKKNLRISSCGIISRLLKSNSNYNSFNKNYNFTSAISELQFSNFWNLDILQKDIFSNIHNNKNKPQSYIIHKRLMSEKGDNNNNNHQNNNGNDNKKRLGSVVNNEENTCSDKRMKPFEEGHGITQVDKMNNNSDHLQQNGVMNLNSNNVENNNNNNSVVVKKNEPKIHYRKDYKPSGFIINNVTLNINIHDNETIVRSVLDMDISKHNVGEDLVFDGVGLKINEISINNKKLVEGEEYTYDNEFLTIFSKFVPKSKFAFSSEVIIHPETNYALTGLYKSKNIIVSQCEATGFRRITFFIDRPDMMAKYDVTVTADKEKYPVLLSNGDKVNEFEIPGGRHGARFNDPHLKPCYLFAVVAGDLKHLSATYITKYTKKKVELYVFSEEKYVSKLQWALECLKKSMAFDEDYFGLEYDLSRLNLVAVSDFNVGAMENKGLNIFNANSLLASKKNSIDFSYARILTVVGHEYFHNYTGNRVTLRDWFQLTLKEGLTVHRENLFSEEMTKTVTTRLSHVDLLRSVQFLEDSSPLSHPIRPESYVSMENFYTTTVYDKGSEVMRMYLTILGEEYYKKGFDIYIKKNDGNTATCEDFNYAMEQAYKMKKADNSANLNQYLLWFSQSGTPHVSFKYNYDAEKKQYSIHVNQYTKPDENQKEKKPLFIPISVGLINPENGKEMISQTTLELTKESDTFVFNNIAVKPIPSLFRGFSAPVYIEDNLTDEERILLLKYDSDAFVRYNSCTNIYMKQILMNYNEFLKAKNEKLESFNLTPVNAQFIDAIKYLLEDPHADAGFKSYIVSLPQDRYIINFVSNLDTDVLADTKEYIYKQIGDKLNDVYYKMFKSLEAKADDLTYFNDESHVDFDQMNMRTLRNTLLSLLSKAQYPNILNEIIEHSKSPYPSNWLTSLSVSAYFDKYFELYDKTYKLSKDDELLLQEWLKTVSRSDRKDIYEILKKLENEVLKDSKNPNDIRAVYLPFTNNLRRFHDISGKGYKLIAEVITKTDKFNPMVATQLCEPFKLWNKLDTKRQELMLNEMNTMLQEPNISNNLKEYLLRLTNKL

[23] = P. falciparum Dd2 growth inhibitors, dose response, SYBR Green, cherry-picked samples (AID 1159567); type: functional, cell-based
[24] = toxicity to human hepatoma HepG2 cells – cell-based, cherry-picked samples, cytotoxicity control, dose response (AID 1159577); type: functional

c1ccc(CSc2ccc(-c3cccs3)nn2)nc1
EC50 [1]: > 50 µM (active)

O=C(Nc1ccncc1)Nc1ccncc1
EC50 [2]: 8.86 µM (not active)

O=C(c1ccccc1)c1nc[nH]c1C(=O)Nc1ccccn1
IC50 [3]: > 93.1 µM (not active)

CCOC(=O)c1ccc(COC(=O)c2cc3ccccc3oc2=O)o1
IC50 (cells [4]): > 50 µM (active)

COc1cc(C(=O)NCc2cn3ccsc3n2)cc(OC)c1OC
IC50 [3]: 53.1 µM (not active)

COc1ccc(C2C(C(=O)NCc3ccco3)CCC(=O)N2c2ccc(OC)cc2)cc1 (configuration not stated)
IC50 [3]: > 93.1 µM (not active)

CCOc1nc(-c2ccccc2)ccc1-c1noc(-c2cccs2)n1
EC50 [5]: 21.2 µM (not active) | EC50 [6]: 25.8 µM (not active) | EC50 [7]: 29.6 µM (not active)

COc1ccccc1NC(=O)c1nc(S(=O)(=O)Cc2ccccc2)ncc1Cl
AC50 [8]: 8.91 µM (active) | AC50 [9]: 0.492 µM (active) | EC50 (cells [10]): > 350 µM (not active) | AC50 (INS1): 6.44 µM (active) | AC50 [11]: 21.1 µM (active) | EC50 (cells [12]): 5 µM (active) | AC50 (Paired box protein Pax-8): 8.83 µM (active) | AC50 [13]: 14.2 µM (active) | AC50 [14]: 6.58 µM (active)

O=C(CSc1ccc(-c2ccco2)nn1)NC1CCCC1
EC50 [2]: 0.75 µM (not active)

CCOC(=O)c1nn(-c2ccc(Cl)cc2)c2nc(-c3ccc(C)cc3)c(C#N)c(=O)n12
EC50 [5]: > 79.4 µM (not active) | EC50 [6]: > 79.4 µM (not active) | EC50 [7]: > 79.4 µM (not active)

CS(=O)(=O)N(CCc1ccccc1)CC(=O)Nc1ccc2c(c1)OCO2
EC50 [1]: > 50 µM (active)

N=C(NOS(=O)(=O)c1ccc(Cl)cc1)c1cccnc1
EC50 [1]: > 50 µM (active)

Cc1ccc2c(c1)c1ccc3c(c1n2C)C(=O)C=CC3=O
IC50 [15]: > 66 µM (inactive) | CC50 (Vero): 27.3 µM (active) | CC50 [16]: 12.5 µM (active) | EC50 [2]: 958 µM (active) | IC50 [17]: 51.8 µM (active) | IC50 [18]: 1.51 µM (active) | IC50 [19]: > 66 µM (inactive)

CSCCC(NC(=O)c1ccco1)C(=O)OCC(=O)Nc1sccc1C#N (configuration not stated)
IC50 (Estrogen receptor beta): 16.5 µM (active)

CCOc1ccc(-c2csc(NNC3=NCCCCC3)n2)cc1
IC50 [15]: > 66 µM (inactive) | EC50 [5]: > 79.4 µM (not active) | EC50 [6]: > 79.4 µM (not active) | IC50 [19]: > 66 µM (inactive) | EC50 [7]: > 79.4 µM (not active)

CC(C)=CCN1CCN(Cc2nc(-c3ccccc3)cs2)CC1CCO (configuration not stated)
EC50 [1]: > 50 µM (active)

O=C1NN(c2cccc(Cl)c2)C(=O)/C1=C\c1ccc(-c2cccc(C(=O)O)c2)o1
IC50 [20]: > 100 µM (not active)

Cc1oc(C(=O)O)cc1COc1ccc2c(oc(=O)c3ccccc32)c1C
IC50 [20]: > 100 µM (not active)

CSC(=S)N/N=C(\C)c1ccccc1
pIC50 [21]: < 4.49 | EC50 (Beta-galactosidase): > 31.5 µM (inactive) | IC50 [22]: 8.37 µM (active)

Cc1nnc(O)nc1N/N=C/c1cccs1
EC50 [5]: > 79.4 µM (not active) | IC50 (Aminopeptidase N): 25.8 µM (active) | EC50 [6]: > 79.4 µM (not active) | EC50 [7]: > 79.4 µM (not active)

N#C[C@@H]1[C@@H](c2ccc(C#Cc3ccc(F)cc3)cc2)[C@H](CO)N1C(=O)C1CCC1
AC50 [23]: 6.15 µM (active) | AC50 [24]: > 39 µM (inactive)

Nc1nc(Sc2ccc([N+](=O)[O-])c3nonc23)c2nc[nH]c2n1
AC50 [11]: 1.17 µM (active) | CC50 (Vero): 5.9 µM (active) | CC50 [16]: 0.68 µM (active)
